The results in this text go back to ChEMBL document CHEMBL3259654, “Dihydrothiophene-condensed chromones from a marine-derived fungus Penicillium oxalicum and their structure-bioactivity relationship” (Bioorg Med Chem Lett, 2014).

Each structure is given as a SMILES string.

One data set has as its system MOLT-4. Put plainly: Cytotoxicity against human MOLT4 cells by MTT assay. Type of data set: functional, cell-based.
Data set [1] is described as follows: Retention time of the compound by HPLC analysis. Type of data set: physicochemical.
A short description of data set [2]: Cytotoxicity against human BGC823 cells by MTT assay. Type of data set: functional, cell-based. As to conditions: BGC-823.
The nature of data set [3]: Cytotoxicity against human HuH7 cells by MTT assay. Type of data set: functional, cell-based. As to conditions: Huh-7.
The test system of a further data set is HL-60. Put plainly: Cytotoxicity against human HL60 cells by MTT assay. The class given is functional, cell-based.
Another data set has as its system NCI-H1975. In words: Cytotoxicity against human NCI-H1975 cells by MTT assay. The class given is functional, cell-based.
In the next data set the test system is U-937. In words: Cytotoxicity against human U937 cells by MTT assay. The class given is functional, cell-based.
A further data set concerns MCF7. In words: Cytotoxicity against human MCF7 cells by MTT assay. The class given is functional, cell-based.
Another data set relates to K562. Put plainly: Cytotoxicity against human K562 cells by MTT assay. Type of data set: functional, cell-based.

As to `COC(=O)[C@@](O)(C[C@@H](O)C(=O)O)[C@@H]1Cc2c(oc3cc(C)cc(O)c3c2=O)S1`, the IC50 with MOLT-4 is 5.74 µM; in [2], 10.1 µM. In data set [1], the Retention_time is 23.144 min.

In the case of `COC(=O)C[C@](O)(C(=O)OC)[C@@H]1Cc2c(oc3cc(C)cc(O)c3c2=O)S1`, the IC50 in [3] was 6.33 µM; with HL-60 it was 2.96 µM; in the data set with MOLT-4 it was 1.36 µM; with NCI-H1975 it was 5.45 µM; in the data set with U-937, 4.16 µM; in the data set with MCF7, 4.32 µM. Besides, the IC50 amounted to 1.96 µM in data set [2] and 8.8 µM in the data set with K562.

For `COC(=O)[C@H](O)C[C@](O)(C(=O)OC)[C@@H]1Cc2c(oc3cc(C)cc(O)c3c2=O)S1`, the IC50 in [3] came to 9.49 µM; in the data set on HL-60, 2.55 µM; in the data set with MOLT-4, 0.3 µM; with NCI-H1975 it was 10.4 µM; with U-937, 2.35 µM; in the data set with MCF7 it was 11.3 µM. Moreover, the results for the 50% inhibitory concentration (IC50) (in [2]; in the data set with K562) were 4.89 µM and 4.53 µM, respectively. In data set [1], this compound showed a Retention_time of 24.796 min.

On to `COC(=O)[C@H](O)C[C@](O)(C(=O)OC)[C@H]1Cc2c(oc3cc(C)cc(O)c3c2=O)S1`, for which the IC50 is 6.41 µM in the data set on HL-60, 2.3 µM in the data set on MOLT-4 and 5 µM with U-937.

On to `COC(=O)[C@@H](C[C@](O)(C(=O)OC)[C@@H]1Cc2c(oc3cc(C)cc(O)c3c2=O)S1)OC(=O)[C@](OC)(c1ccccc1)C(F)(F)F`, for which the values for the IC50 (in the data set on MOLT-4; in the data set with U-937; in data set [2]) were 5.89 µM, 9.85 µM and 8.82 µM, respectively.

For the compound `COC(=O)[C@@H](C[C@](O)(C(=O)OC)[C@@H]1Cc2c(oc3cc(C)cc(O)c3c2=O)S1)OC(=O)[C@@](OC)(c1ccccc1)C(F)(F)F`, the IC50 with HL-60 was found to be 7.54 µM; in the data set on MOLT-4, 4.81 µM; in the data set on U-937 it was 9.04 µM; in [2], 5.53 µM; in the data set on K562 it was 1.34 µM.

With `COC(=O)[C@@H](C[C@](O)(C(=O)OC)[C@@H]1Cc2c(oc3cc(C)cc(O)c3c2=O)S1)OC(=O)c1ccc([N+](=O)[O-])cc1`, the IC50 in [3] worked out at 6 µM; in the data set with HL-60, 3.96 µM; in the data set with MOLT-4, 3.66 µM; in the data set on NCI-H1975, 6.97 µM; with U-937 it was 6.37 µM; in the data set on MCF7 it was 7.37 µM. For the same compound, the results for the IC50 (in [2]; in the data set on K562) were 8.01 µM and 9.68 µM, respectively.

`COC(=O)[C@@H](C[C@](O)(C(=O)OC)[C@@H]1Cc2c(oc3cc(C)cc(OC(=O)c4ccc([N+](=O)[O-])cc4)c3c2=O)S1)OC(=O)c1ccc([N+](=O)[O-])cc1`: the IC50 in data set [3] was found to be 8.77 µM; with HL-60 it was 3.09 µM; in the data set with MOLT-4 it was 2.96 µM; in the data set with U-937 it was 6.34 µM; with MCF7, 6.05 µM; in [2] it was 4.49 µM. In addition, the IC50 with K562 stood at 1.04 µM.

Regarding `COC(=O)[C@@H](C[C@](O)(C(=O)OC)[C@@H]1Cc2c(oc3cc(C)cc(O)c3c2=O)S1)OC(=O)c1cc(C(F)(F)F)cc(C(F)(F)F)c1`, the IC50 with HL-60 was determined as 3.79 µM; in the data set with MOLT-4, 3.02 µM; in the data set on NCI-H1975, 2.33 µM; in the data set on U-937 it was 4.06 µM; in the data set with MCF7 it was 6.94 µM; in data set [2] it was 3.95 µM. In the data set with K562, the IC50 was 6.9 µM.

`COC(=O)[C@@H](C[C@](OC(=O)c1cc(C(F)(F)F)cc(C(F)(F)F)c1)(C(=O)OC)[C@@H]1Cc2c(oc3cc(C)cc(OC(=O)c4cc(C(F)(F)F)cc(C(F)(F)F)c4)c3c2=O)S1)OC(=O)c1cc(C(F)(F)F)cc(C(F)(F)F)c1` registered an IC50 in the data set with U-937 of 7.2 µM.

On to `COC(=O)[C@@H](C[C@](O)(C(=O)OC)[C@@H]1Cc2c(oc3cc(C)cc(OC(=O)c4ccccc4)c3c2=O)S1)OC(=O)c1ccccc1`, for which the IC50 was determined as 4.46 µM in the data set with HL-60 and 3.99 µM in the data set with MOLT-4.

As to `COC(=O)[C@@H](C[C@](O)(C(=O)OC)[C@H]1Cc2c(oc3cc(C)cc(O)c3c2=O)S1)OC(=O)[C@@](OC)(c1ccccc1)C(F)(F)F`, the IC50 with HL-60 came out at 9.14 µM; with MOLT-4 it was 6.03 µM; in [2], 8.81 µM.
